Source: patent publication EP2264011A1, “Heteroarylamidines and their use as fungicides” (Bayer CropScience AG, priority 2009, dated 2010)
One block for each molecule: values may come before it.

Experiments:
physchem = details: pH 2.3
From the text: Die Bestimmung erfolgt im sauren Bereich bei pH 2.3 mit 0,1% wässriger Phosphorsäure und Acetonitril als Eluenten linearer Gradient von 10% Acetonitril bis 95% Acetonitril.

Botrytis cinerea = assay: Botrytis test (cucumber) / protective; type: in vivo; details: 500ppm active ingredient, evaluated 5-6 days after inoculation
Method: (§1) Zur Herstellung einer zweckmäßigen Wirkstoffzubereitung vermischt man 1 Gewichtsteil Wirkstoff mit den angegebenen Mengen Lösungsmittel und Emulgator und verdünnt das Konzentrat mit Wasser auf die gewünschte Konzentration.
Zur Prüfung auf protektive Wirksamkeit bespritzt man junge Gurkenpflanzen mit der Wirkstoffzubereitung in der angegebenen Aufwandmenge. 1 Tag nach der Behandlung werden die Pflanzen mit einer Sporensuspension von Botrytis cinerea inokuliert und stehen dann 48h bei 100% rel. Feuchte und 22°C. Anschließend stehen die Pflanzen bei 96% rel. Luftfeuchtigkeit und einer Temperatur von 14°C.
5-6 Tage nach der Inokulation erfolgt die Auswertung. Dabei bedeutet 0 % ein Wirkungsgrad, der demjenigen der Kontrolle entspricht, während ein Wirkungsgrad von 100 % bedeutet, dass kein Befall beobachtet wird.

Venturia inaequalis = assay: Venturia test (apple) / protective; type: in vivo; details: 100ppm active ingredient, evaluated 10 days after inoculation
From the text: as §1
Zur Prüfung auf protektive Wirksamkeit werden junge Pflanzen mit der Wirkstoffzubereitung in der angegebenen Aufwandmenge besprüht. Nach Antrocknen des Spritzbelages werden die Pflanzen mit einer wäßrigen Konidiensuspension des Apfelschorferregers Venturia inaequalis inokuliert und verbleiben dann 1 Tag bei ca. 20°C und 100% relativer Luftfeuchtigkeit in einer Inkubations-kabine.
Die Pflanzen werden dann im Gewächshaus bei ca. 21°C und einer relativen Luftfeuchtigkeit von ca. 90% aufgestellt.
10 Tage nach der Inokulation erfolgt die Auswertung. Dabei bedeutet 0% ein Wirkungsgrad, der demjenigen der Kontrolle entspricht, während ein Wirkungsgrad von 100% bedeutet, daß kein Befall beobachtet wird.

Myzus persicae [1] = assay: Myzus test (MYZUPE spray treatment); type: in vivo; details: 500 g/ha; spray on Chinese cabbage leaf discs (Brassica pekinensis); 100 % = all aphids killed
From the text: (§2) Zur Herstellung einer zweckmäßigen Wirkstoffzubereitung vermischt man 1 Gewichtsteil Wirkstoff mit den angegebenen Mengen Lösungsmittel und Emulgator und verdünnt das Konzentrat mit emulgatorhaltigem Wasser auf die gewünschte Konzentration.
Chinakohlblattscheiben (Brassica pekinensis), die von allen Stadien der Grünen Pfirsichblattlaus (Myzus persicae) befallen sind, werden mit einer Wirkstoffzubereitung der gewünschten Konzentration gespritzt.
(§3) Nach der gewünschten Zeit wird die Wirkung in % bestimmt. Dabei bedeutet 100 %, dass alle Blattläuse abgetötet wurden; 0 % bedeutet, dass keine Blattläuse abgetötet wurden.

Myzus persicae [2] = assay: Myzus test; oral (MYZUPE); type: in vivo; details: 100 g/ha; oral uptake by sucking; 100 % = all aphids killed
From the text: Zur Herstellung einer zweckmäßigen Wirkstoffzubereitung vermischt man 1 Gewichtsteil Wirkstoff mit den angegebenen Mengen Lösungsmittel und verdünnt das Konzentrat mit Wasser auf die gewünschte Konzentration.
Gefäße werden mit allen Stadien der Grünen Pfirsichblattlaus (Myzus persicae) besetzt, durch saugen an der Wirkstoffzubereitung der gewünschten Konzentration wird behandelt.
as §3

Meloidogyne incognita = assay: Meloidogyne test (MELGIN); type: in vivo; details: 20 ppm; sand with lettuce seeds; 100 % = no galls
From the text: as §1
Gefäße werden mit Sand, Wirkstofflösung, Meloidogyne incognita-Ei-Larvensuspension und Salatsamen gefüllt. Die Salatsamen keimen und die Pflänzchen entwickeln sich. An den Wurzeln entwickeln sich die Gallen.
Nach der gewünschten Zeit wird die nematizide Wirkung an Hand der Gallenbildung in % bestimmt. Dabei bedeutet 100 %, dass keine Gallen gefunden wurden; 0 % bedeutet, dass die Zahl der Gallen an den behandelten Pflanzen der der unbehandelten Kontrolle entspricht.

Tetranychus urticae = assay: Tetranychus test, OP-resistant (TETRUR spray treatment); type: in vivo; details: 500 g/ha; spray on bean leaf discs (Phaseolus vulgaris); 100 % = all spider mites killed
From the text: as §2
Bohnenblattscheiben (Phaseolus vulgaris), die von allen Stadien der Gemeinen Spinnmilbe (Tetranychus urticae) befallen sind, werden mit einer Wirkstoffzubereitung der gewünschten Konzentration gespritzt.
Nach der gewünschten Zeit wird die Wirkung in % bestimmt. Dabei bedeutet 100 %, dass alle Spinnmilben abgetötet wurden; 0 % bedeutet, dass keine Spinnmilben abgetötet wurden.

VIOTR = assay: Herbicidal action, test type PE; type: in vivo; details: Test-Typ PE, 320 G/HA
From the text: (§4) Die herbizide Wirkung der Verbindungen der allgemeinen Formel (I) wird in den nachfolgenden Tabellen näher erläutert.

SETVI [3] = assay: Herbicidal action, test type PE; type: in vivo; details: Test-Typ PE, 320 G/HA
From the text: as §4

VERPE [4] = assay: Herbicidal action, test type PE; type: in vivo; details: Test-Typ PE, 320 G/HA
From the text: as §4

ECHCG = assay: Herbicidal action, test type PE; type: in vivo; details: Test-Typ PE, 320 G/HA
From the text: as §4

SETVI [5] = assay: Herbicidal action, test type PO; type: in vivo; details: TEST-TYP PO, 80 G/HA
From the text: as §4

VERPE [6] = assay: Herbicidal action, test type PO; type: in vivo; details: TEST-TYP PO, 80 G/HA
From the text: as §4

AMARE [7] = assay: Herbicidal action, test type PO; type: in vivo; details: TEST-TYP PO, 80 G/HA
From the text: as §4

[8] = tested on: Blumeria graminis f·sp. hordei; assay: Blumeria graminis test (barley) / protective; type: in vivo; details: 1000 ppm active ingredient, evaluated 7 days after inoculation
From the text: as §1
Zur Prüfung auf protektive Wirksamkeit besprüht man junge Pflanzen mit der Wirkstoffzubereitung in der angegebenen Aufwandmenge.
Nach Antrocknen des Spritzbelages werden die Pflanzen mit Sporen von Blumeria graminis f·sp. hordei bestäubt.
Die Pflanzen werden in einem Gewächshaus bei einer Temperatur von ca. 18°C und einer relativen Luftfeuchtigkeit von ca. 80 % aufgestellt, um die Entwicklung von Mehltaupusteln zu begünstigen.
7 Tage nach der Inokulation erfolgt die Auswertung. Dabei bedeutet 0 % ein Wirkungsgrad, der demjenigen der Kontrolle entspricht, während ein Wirkungsgrad von 100 % bedeutet, dass kein Befall beobachtet wird.

AMARE [9] = assay: Herbicidal action, test type PE; type: in vivo; details: Test-Typ PE, 320 G/HA
From the text: as §4

DIGSA = assay: Herbicidal action, test type PE; type: in vivo; details: Test-Typ PE, 320 G/HA
From the text: as §4

PHBPU = assay: Herbicidal action, test type PO; type: in vivo; details: TEST-TYP PO, 80 G/HA
From the text: as §4

chromatographic logP (physchem): 1.75
SMILES: Cc1cc(-c2ccc(Cl)c(C(F)(F)F)c2)ncc1N=CN1CCCC1 [compound 117]

chromatographic logP (physchem): 1.6
SMILES: CCN(C)C=Nc1cnc(-c2ccc([Si](C)(C)C)cc2)cc1C [compound 116]

chromatographic logP (physchem): 2.49
SMILES: CCCCN(C=Nc1cnc(-c2ccc(Cl)c(C(F)(F)F)c2)cc1C)CCCC [compound 118]

chromatographic logP (physchem): 1.03
SMILES: CC(=Nc1cnc(-c2ccc(Cl)c(C(F)(F)F)c2)cc1C)N(C)C [compound 123]

chromatographic logP (physchem): 1.25
SMILES: Cc1cc(-c2ccc(OC(F)(F)F)cc2)ncc1N=CN(C)C [compound 113]

chromatographic logP (physchem): 2.23
SMILES: Cc1cc(-c2ccc(Cl)c(C(F)(F)F)c2)ncc1N=CN(C(C)C)C(C)C [compound 120]

chromatographic logP (physchem): 1.9
SMILES: Cc1cc(-c2ccc(F)c(C(F)(F)F)c2)ncc1N=CN(C(C)C)C(C)C [compound 122]

chromatographic logP (physchem): 1.51
SMILES: Cc1cc(-c2ccc([Si](C)(C)C)cc2)ncc1N=CN(C)C [compound 115]

chromatographic logP (physchem): 1.92
SMILES: CCN(C=Nc1cnc(-c2ccc(Cl)c(C(F)(F)F)c2)cc1C)CC [Beispiel 119]
herbizide Wirkung SETVI (SETVI [3]): 100
herbizide Wirkung AMARE (AMARE [9]): 80

chromatographic logP (physchem): 1.85
SMILES: Cc1cc(-c2ccc(F)c(C(F)(F)F)c2)ncc1N=CN1CCCC1 [compound 121]

chromatographic logP (physchem): 1.34
SMILES: CCN(C)C=Nc1cnc(-c2ccc(OC(F)(F)F)cc2)cc1C [compound 114]

chromatographic logP (physchem): 0.94
SMILES: CC(=Nc1cnc(-c2ccc(Cl)c(C(F)(F)F)c2)cc1C)N1CCCCC1 [compound 124]

Continued, molecule first:

SMILES: Cc1cc(-c2ccc(C(C)(C)C)cc2)ncc1N=CN1CCCCC1 [Beispiel 150]
Wirkungsgrad (Botrytis cinerea): ≥ 70%
Wirkungsgrad (Venturia inaequalis): ≥ 70%

SMILES: Cc1cc(Cl)ncc1N=CN(C)C [Beispiel 131]
Wirkungsgrad (Botrytis cinerea): ≥ 70%

SMILES: CCN(C)C=Nc1cnc(-c2ccc(C3CCCCC3)cc2)cc1C [Beispiel 209]
Wirkungsgrad (Botrytis cinerea): ≥ 70%
Wirkungsgrad (Venturia inaequalis): ≥ 70%

SMILES: Cc1cc(-c2ccc(F)nc2)ncc1N=CN(C)C [Beispiel 234]
Wirkung (Myzus persicae [1]): ≥ 80%
Wirkung (Myzus persicae [2]): ≥ 80%
nematizide Wirkung an Hand der Gallenbildung (Meloidogyne incognita): ≥ 80%

SMILES: Cc1cc(-c2ccc(C(F)(F)F)c(Cl)c2)ncc1N=CN(C)C [Beispiel 105]
nematizide Wirkung an Hand der Gallenbildung (Meloidogyne incognita): ≥ 80%
Wirkung (Tetranychus urticae): ≥ 80%
herbizide Wirkung VIOTR (VIOTR): 90
herbizide Wirkung SETVI (SETVI [3]): 80
herbizide Wirkung VERPE (VERPE [4]): 100
herbizide Wirkung ECHCG (ECHCG): 80
herbizide Wirkung SETVI (SETVI [5]): 80
herbizide Wirkung VERPE (VERPE [6]): 80
herbizide Wirkung AMARE (AMARE [7]): 80

SMILES: Cc1cc(-c2ccc(C(F)(F)F)cc2)ncc1N=CN(C)C [Beispiel 100]
nematizide Wirkung an Hand der Gallenbildung (Meloidogyne incognita): ≥ 80%

SMILES: Cc1cc(-c2cccnc2)ncc1N=CN(C)C [Beispiel 270]
Wirkung (Myzus persicae [1]): ≥ 80%
Wirkung (Myzus persicae [2]): ≥ 80%

SMILES: CCN(C)C=Nc1cnc(-c2ccc(Cl)c(C(F)(F)F)c2)cc1C [Beispiel 15]
Wirkungsgrad (Botrytis cinerea): ≥ 70%
Wirkungsgrad (Venturia inaequalis): ≥ 70%
Wirkungsgrad [8]: ≥ 70%
herbizide Wirkung SETVI (SETVI [3]): 100
herbizide Wirkung VERPE (VERPE [4]): 90
herbizide Wirkung AMARE (AMARE [9]): 90
herbizide Wirkung ECHCG (ECHCG): 90
herbizide Wirkung DIGSA (DIGSA): 100
herbizide Wirkung PHBPU (PHBPU): 90
herbizide Wirkung VERPE (VERPE [6]): 80

SMILES: CCN(C)C=Nc1cnc(-c2ccc(C(C)(C)C)cc2)cc1C [Beispiel 142]
Wirkungsgrad (Botrytis cinerea): ≥ 70%
Wirkungsgrad [8]: ≥ 70%

SMILES: CCN(C)C=Nc1cnc(-c2cccnc2)cc1C [Beispiel 95]
Wirkung (Myzus persicae [1]): ≥ 80%
Wirkung (Myzus persicae [2]): ≥ 80%

SMILES: CCN(C)C=Nc1cnc(-c2ccc(OC(F)(F)F)c(F)c2)cc1C [Beispiel 247]
Wirkung (Myzus persicae [2]): ≥ 80%
nematizide Wirkung an Hand der Gallenbildung (Meloidogyne incognita): ≥ 80%

SMILES: Cc1cc(-c2cc(C(F)(F)F)cc(C(F)(F)F)c2)ncc1N=CN(C)C [Beispiel 172]
Wirkung (Myzus persicae [2]): ≥ 80%
